Experimental data published in ChEMBL document CHEMBL2375284, “Novel hybrids of natural isochroman-4-one bearing N-substituted isopropanolamine as potential antihypertensive candidates” (Bioorg Med Chem, 2013).

What was measured:
Rattus norvegicus [1] = test: Antihypertensive activity in rat spontaneous hypertensive model assessed as diastolic arterial blood pressure at 80 mg/kg, po measured at 6 hrs by tail-cuff method (reference value: 141.2 +/- 7.34 mmHg); assay type: functional, Artery
Rattus norvegicus [2] = test: Toxicity in rat spontaneous hypertensive model assessed as heart rate at 80 mg/kg, po measured at 2 hrs by tail-cuff method (reference value: 399.5 +/- 19.68 bpm); assay type: organism-based; parameters: dose 80 mg/kg, route oral; conditions: in vivo
Rattus norvegicus [3] = test: Antihypertensive activity in rat spontaneous hypertensive model assessed as mean arterial blood pressure at 80 mg/kg, po measured at 6 hrs by tail-cuff method (reference value: 155.8 +/- 7.97 mmHg); assay type: functional, Artery
Rattus norvegicus [4] = test: Antihypertensive activity in rat spontaneous hypertensive model assessed as diastolic arterial blood pressure at 80 mg/kg, po measured at 2 hrs by tail-cuff method (reference value: 142.9 +/- 18.07 mmHg); assay type: functional, Artery
Rattus norvegicus [5] = test: Antihypertensive activity in rat spontaneous hypertensive model assessed as mean arterial blood pressure at 80 mg/kg, po measured at 4 hrs by tail-cuff method (reference value: 154.4 +/- 20.1 mmHg); assay type: functional, Artery
Rattus norvegicus [6] = test: Toxicity in rat spontaneous hypertensive model assessed as heart rate at 80 mg/kg, po measured at 1 hr by tail-cuff method (reference value: 403.9 +/- 12.41 bpm); assay type: organism-based; parameters: dose 80 mg/kg, route oral; conditions: in vivo
Rattus norvegicus [7] = test: Toxicity in rat spontaneous hypertensive model assessed as heart rate at 80 mg/kg, po measured at 4 hrs by tail-cuff method (reference value: 403.1 +/- 15.92 bpm); assay type: organism-based; parameters: dose 80 mg/kg, route oral; conditions: in vivo
Rattus norvegicus [8] = test: Antihypertensive activity in rat spontaneous hypertensive model assessed as mean arterial blood pressure at 80 mg/kg, po measured at 1 hr by tail-cuff method (reference value: 158.9 +/- 13.65 mmHg); assay type: functional, Artery
Rattus norvegicus [9] = test: Antihypertensive activity in rat spontaneous hypertensive model assessed as systolic arterial blood pressure at 80 mg/kg, po measured at 1 hr by tail-cuff method (reference value: 181.2 +/- 16.37 mmHg); assay type: functional, Artery
Rattus norvegicus [10] = test: Antihypertensive activity in rat spontaneous hypertensive model assessed as diastolic arterial blood pressure at 80 mg/kg, po measured at 4 hrs by tail-cuff method (reference value: 141.4 +/- 7.11 mmHg); assay type: functional, Artery
Rattus norvegicus [11] = test: Antihypertensive activity in rat spontaneous hypertensive model assessed as systolic arterial blood pressure at 80 mg/kg, po measured at 8 hrs by tail-cuff method (reference value: 174 +/- 12.1 mmHg); assay type: functional, Artery
Rattus norvegicus [12] = test: Antihypertensive activity in rat spontaneous hypertensive model assessed as mean arterial blood pressure at 80 mg/kg, po measured at 8 hrs by tail-cuff method (reference value: 155.8 +/- 11.54 mmHg); assay type: functional, Artery
Rattus norvegicus [13] = test: Antihypertensive activity in rat spontaneous hypertensive model assessed as systolic arterial blood pressure at 80 mg/kg, po measured at 0.5 hrs by tail-cuff method (reference value: 178.5 +/- 10.13 mmHg); assay type: functional, Artery
Rattus norvegicus [14] = test: Antihypertensive activity in rat spontaneous hypertensive model assessed as systolic arterial blood pressure at 80 mg/kg, po measured at 6 hrs by tail-cuff method (reference value: 176.7 +/- 15.21 mmHg); assay type: functional, Artery
Rattus norvegicus [15] = test: Antihypertensive activity in rat spontaneous hypertensive model assessed as systolic arterial blood pressure at 80 mg/kg, po measured at 2 hrs by tail-cuff method (reference value: 172.6 +/- 17.3 mmHg); assay type: functional, Artery
Rattus norvegicus [16] = test: Toxicity in rat spontaneous hypertensive model assessed as heart rate at 80 mg/kg, po measured at 6 hrs by tail-cuff method (reference value: 405.1 +/- 24 bpm); assay type: organism-based; parameters: dose 80 mg/kg, route oral; conditions: in vivo
Rattus norvegicus [17] = test: Toxicity in rat spontaneous hypertensive model assessed as heart rate at 80 mg/kg, po measured at 0.5 hrs by tail-cuff method (reference value: 406.5 +/- 13.15 bpm); assay type: organism-based; parameters: dose 80 mg/kg, route oral; conditions: in vivo
Rattus norvegicus [18] = test: Antihypertensive activity in rat spontaneous hypertensive model assessed as mean arterial blood pressure at 80 mg/kg, po measured at 0.5 hrs by tail-cuff method (reference value: 156.2 +/- 7.21 mmHg); assay type: functional, Artery
Rattus norvegicus [19] = test: Toxicity in rat spontaneous hypertensive model assessed as heart rate at 80 mg/kg, po measured at 8 hrs by tail-cuff method (reference value: 397.2 +/- 24.87 bpm); assay type: organism-based; parameters: dose 80 mg/kg, route oral; conditions: in vivo
Rattus norvegicus [20] = test: Antihypertensive activity in rat spontaneous hypertensive model assessed as systolic arterial blood pressure at 80 mg/kg, po measured at 4 hrs by tail-cuff method (reference value: 172.9 +/- 10.21 mmHg); assay type: functional, Artery
Rattus norvegicus [21] = test: Antihypertensive activity in rat spontaneous hypertensive model assessed as diastolic arterial blood pressure at 80 mg/kg, po measured at 8 hrs by tail-cuff method (reference value: 135.3 +/- 8.21 mmHg); assay type: functional, Artery
Rattus norvegicus [22] = test: Antihypertensive activity in rat spontaneous hypertensive model assessed as mean arterial blood pressure at 80 mg/kg, po measured at 2 hrs by tail-cuff method (reference value: 157.41 +/- 9.62 mmHg); assay type: functional, Artery
Rattus norvegicus [23] = test: Antihypertensive activity in rat spontaneous hypertensive model assessed as diastolic arterial blood pressure at 80 mg/kg, po measured at 1 hr by tail-cuff method (reference value: 146.2 +/- 13.19 mmHg); assay type: functional, Artery
Rattus norvegicus [24] = test: Antihypertensive activity in rat spontaneous hypertensive model assessed as diastolic arterial blood pressure at 80 mg/kg, po measured at 0.5 hrs by tail-cuff method (reference value: 138.7 +/- 9.2 mmHg); assay type: functional, Artery

Structure (SMILES) | Activity (Rattus norvegicus [1]) [mmHg] | Activity (Rattus norvegicus [2]) [bpm] | Activity (Rattus norvegicus [3]) [mmHg] | Activity (Rattus norvegicus [4]) [mmHg] | Activity (Rattus norvegicus [5]) [mmHg] | Activity (Rattus norvegicus [6]) [bpm] | Activity (Rattus norvegicus [7]) [bpm] | Activity (Rattus norvegicus [8]) [mmHg] | Activity (Rattus norvegicus [9]) [mmHg] | Activity (Rattus norvegicus [10]) [mmHg] | Activity (Rattus norvegicus [11]) [mmHg] | Activity (Rattus norvegicus [12]) [mmHg] | Activity (Rattus norvegicus [13]) [mmHg] | Activity (Rattus norvegicus [14]) [mmHg] | Activity (Rattus norvegicus [15]) [mmHg] | Activity (Rattus norvegicus [16]) [bpm] | Activity (Rattus norvegicus [17]) [bpm] | Activity (Rattus norvegicus [18]) [mmHg] | Activity (Rattus norvegicus [19]) [bpm] | Activity (Rattus norvegicus [20]) [mmHg] | also measured
COc1cc2c(cc1OCC(O)CNC(C)C)C(=O)C(C)OC2 (stereo not drawn) | 99 | 356.9 | 121 | 101 | 118.1 | 365.6 | 358.5 | 128.8 | 164.5 | 99.8 | 162.6 | 124.2 | 174.1 | 164.2 | 165.7 | 355.2 | 367 | 134 | 367.7 | 166.6 | Activity (Rattus norvegicus [21]): 107.7 mmHg; Activity (Rattus norvegicus [22]): 122.1 mmHg; Activity (Rattus norvegicus [23]): 113.9 mmHg; Activity (Rattus norvegicus [24]): 113.7 mmHg
COc1cc2c(cc1OCC(O)CNC(C)C)COC(C)C2=O (stereo not drawn) | 91.4 | 365.1 | 114 | 84.1 | 97.8 | 378.3 | 361.4 | 123.1 | 160.9 | 83 | 158.3 | 119 | 169.2 | 150.5 | 152.8 | 370 | 385.4 | 142.2 | 372.8 | 141 | Activity (Rattus norvegicus [21]): 98 mmHg; Activity (Rattus norvegicus [22]): 103.9 mmHg; Activity (Rattus norvegicus [23]): 102.8 mmHg; Activity (Rattus norvegicus [24]): 128.7 mmHg
